This note sets out measurements from US8263095B2, “Methods of use for peptides having activities of insulin like growth factor-1” (Caregen Co., Ltd., priority 2006, dated 2012).

Bridge positions count the residues as written; N and C are the ends. Ends that are not written are not given here. * marks the point of attachment. FITC = O=C1OC2(c3ccc(O)cc3Oc3cc(O)ccc32)c2ccc(NC(=S)*)cc21; βAla = NCCC(=O)O

The test system of the test is receptors on surface of 3T3 fibroblasts. The test is described as follows: Binding of fluorescence-labeled peptide to receptors on fibroblasts. To be noted: 1 mg/ml, 1 hr incubation, fluorescence and optical microscopy. The procedure: 3T3 fibroblasts were cultured in 250 ml-flasks containing EMEM (Eagle's minimal essential media, Gibco, U.S.A.) supplemented with […] FBS (fetal bovine serum). After 48-hr culture, the supernatant of the medium was discarded and the remainder was washed once with PBS (phosphate buffered saline). FITC-b-Ala-CDLRRLEMYC prepared in Preparation Example 4 was dissolved in DMSO and PBS to a concentration of 1 mg/ml and incubated for 1 hr with cells cultured. After removing medium, cells were completely washed and their surface was observed under fluorescence and optical microscopes.

For “FITC-b-Ala-Cys-Asp-Leu-Arg-Arg-Leu-Glu-Met-Tyr-Cys ({FITC-βAla}-CDLRRLEMYC; disulfide 1-10) [FITC-labeled peptide]”, the “binding of the FITC-labeled peptide to receptors on cell (FIG. 12)” value was “binds to receptors on surface of fibroblasts”.
